pIC50: −log10 of the molar value.
Tested on: Plasmodium falciparum
Assay: Antimalarial activity against Plasmodium falciparum 3D7 infected human erythrocytes after 24 hrs by [3H]hypoxanthine uptake
Type: functional, organism-based

First: O=S(=O)(c1ccccc1)N1CCC2(CC1)COC1(OO2)C2CC3CC(C2)CC1C3 (stereo not given)
Second: O=S(=O)(c1ccccc1)N1CCC2(CC1)OOC1(O2)C2CC3CC(C2)CC1C3 (stereo not given)
The pIC50 of the first is 2.06 log units lower: 6.15 for the first, 8.21 for the second. The second is the more potent here.

First: O=S(=O)(c1ccccc1)N1CCC2(CC1)OCC1(OO2)C2CC3CC(C2)CC1C3 (stereo not given)
Second: O=S(=O)(c1ccccc1)N1CCC2(CC1)OOC1(OO2)C2CC3CC(C2)CC1C3
The pIC50 of the first is lower: under 6.00 for the first, 7.97 for the second.

`CCS(=O)(=O)N1CCC2(CC1)COC1(OO2)C2CC3CC(C2)CC1C3` (stereo not given) and `CC(=O)N1CCC2(CC1)COC1(OO2)C2CC3CC(C2)CC1C3` (stereo not given) are within 0.2 log units of each other in pIC50: 6.75 for the first, 6.74 for the second.

Going from `C1CC2(CCN1)COC1(OO2)C2CC3CC(C2)CC1C3` (stereo not given) to `CC(C)(C)OC(=O)N1CCC2(CC1)COC1(OO2)C2CC3CC(C2)CC1C3` (stereo not given), the pIC50 falls from 6.92 to 6.70 (0.22 log units).

First: O=C(OCC1c2ccccc2-c2ccccc21)N1CCC2(CC1)COC1(OO2)C2CC3CC(C2)CC1C3 (stereo not given)
Second: CO[C@H]1O[C@@H]2O[C@@]3(C)CC[C@H]4[C@H](C)CC[C@@H]([C@H]1C)[C@@]24OO3 [ARTEMETHER]
The pIC50 of the first is 2.14 log units lower: 6.76 for the first, 8.90 for the second.
